# From patent US12612407B2, “Imidazo[2,1-f][1,2,4]triazin-4-amine derivatives as TLR7 agonist” (BEIGENE, LTD., priority 2020, dated 2026)
# Target: T1, human TLR7 (Homo sapiens, UniProt Q9NYK1)
# T1 construct: host or cells: HEK293 (HEK-Blue hTLR7)
# T1 sequence (Q9NYK1 27-1049): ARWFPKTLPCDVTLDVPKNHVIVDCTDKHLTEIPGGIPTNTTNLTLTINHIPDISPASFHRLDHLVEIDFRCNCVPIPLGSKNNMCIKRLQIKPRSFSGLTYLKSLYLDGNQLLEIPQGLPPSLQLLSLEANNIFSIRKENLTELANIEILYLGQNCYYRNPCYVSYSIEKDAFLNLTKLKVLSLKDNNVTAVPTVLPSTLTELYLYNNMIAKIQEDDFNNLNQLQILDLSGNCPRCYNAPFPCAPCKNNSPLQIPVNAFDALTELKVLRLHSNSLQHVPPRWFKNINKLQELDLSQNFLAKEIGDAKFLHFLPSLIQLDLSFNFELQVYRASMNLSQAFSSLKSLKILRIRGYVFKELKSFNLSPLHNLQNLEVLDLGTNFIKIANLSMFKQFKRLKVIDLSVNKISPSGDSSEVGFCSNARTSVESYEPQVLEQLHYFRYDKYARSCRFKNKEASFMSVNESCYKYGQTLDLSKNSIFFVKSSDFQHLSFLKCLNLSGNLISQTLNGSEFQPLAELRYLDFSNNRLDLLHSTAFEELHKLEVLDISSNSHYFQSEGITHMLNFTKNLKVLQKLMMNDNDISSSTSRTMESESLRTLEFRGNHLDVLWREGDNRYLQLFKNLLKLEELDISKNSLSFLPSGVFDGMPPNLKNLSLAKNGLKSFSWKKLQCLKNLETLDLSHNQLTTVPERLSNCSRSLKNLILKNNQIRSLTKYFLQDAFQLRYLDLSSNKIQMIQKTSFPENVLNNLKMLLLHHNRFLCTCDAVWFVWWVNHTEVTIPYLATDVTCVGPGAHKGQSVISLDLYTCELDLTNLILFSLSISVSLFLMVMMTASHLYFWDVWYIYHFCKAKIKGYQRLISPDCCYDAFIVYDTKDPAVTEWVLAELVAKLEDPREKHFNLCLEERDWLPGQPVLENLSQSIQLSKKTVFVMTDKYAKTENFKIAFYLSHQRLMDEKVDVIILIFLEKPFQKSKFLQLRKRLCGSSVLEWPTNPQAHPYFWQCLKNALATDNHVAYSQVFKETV
# Test: HEK293-Blue hTLR7 Reporter Assay (QUANTI-BLUE, SEAP readout)
# Format: cell-based
# Details: HEK-Blue-hTLR7 cells, 24 hrs treatment, Table 1, B1-B232
# Outline: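 HEK-Blue-hTLR7 cells expressing NF-κB/AP-1-driven SEAP, 4×10^4 cells/well, treated 24 h at 37° C with increasing compound concentrations. Supernatant SEAP measured with Quanti-blue substrate (10-30 min, 37° C) at 620-655 nm; EC50 from sigmoidal dose-response fit.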
row,Compound,EC50 [nM]
1,"CCCCCCCCOc1nc(N)c2ncc(Cc3cnc(N4CCNCC4)c(C)c3)n2n1 [Compound B43, 7-((5-methyl-6-(piperazin-1-yl)pyridin-3-yl)methyl)-2-(octyloxy)imidazo[2,1-f][1,2,4]triazin-4-amine]",> 10000
2,"CCCCOc1nc(N)c2ncc(Cc3ccc(N4CCNCC4)cn3)n2n1 [Compound B16, 2-butoxy-7-((5-(piperazin-1-yl)pyridin-2-yl)methyl)imidazo[2,1-f][1,2,4]triazin-4-amine]",1440
3,"CCCCOc1nc(N)c2ncc(Cc3cnc(N4CCC(OC)CC4)c(C)c3)n2n1 [Compound B103, 2-butoxy-7-((6-(4-methoxypiperidin-1-yl)-5-methylpyridin-3-yl)methyl)imidazo[2,1-f][1,2,4]triazin-4-amine]",7960
4,"CCC[C@H](CC)Oc1nc(N)c2ncc(Cc3cnc(N4CCNCC4)c(C)c3)n2n1 (single isomer, unassigned) [Compound B224]",5.1
5,"CCC(CC)Nc1nc(N)c2ncc(Cc3cnc(N4CCN(C(=O)CNC)CC4)c(C)c3)n2n1 [Compound B175, 1-(4-(5-((4-amino-2-(pentan-3-ylamino)imidazo[2,1-f][1,2,4]triazin-7-yl)methyl)-3-methylpyridin-2-yl)piperazin-1-yl)-2-(methylamino)ethan-1-one]",3.3
6,"CCCCOc1nc(N)c2ncc(Cc3cnc(N4CCN(C(=O)CN(C)C)CC4)c(C)c3)n2n1 [Compound B12, 1-(4-(5-((4-amino-2-butoxyimidazo[2,1-f][1,2,4]triazin-7-yl)methyl)-3-methylpyridin-2-yl)piperazin-1-yl)-2-(dimethylamino)ethan-1-one]",44
7,"CCCC(C)Nc1nc(N)c2ncc(Cc3cnc(N4CCC(NC)CC4)c(C)c3)n2n1 (stereo not shown) [Compound B166, 7-((5-methyl-6-(4-(methylamino)piperidin-1-yl)pyridin-3-yl)methyl)-N2-(pentan-2-yl)imidazo[2,1-f][1,2,4]triazine-2,4-diamine]",2.6
8,"CCCCOc1nc(N)c2ncc(Cc3cnc(N4CCNCC4)cc3C)n2n1 [Compound B48, 2-butoxy-7-((4-methyl-6-(piperazin-1-yl)pyridin-3-yl)methyl)imidazo[2,1-f][1,2,4]triazin-4-amine]",4770
9,"CCCCOc1nc(N)c2ncc(Cc3cnc(N4CCN(C(=O)C5CCNCC5)CC4)c(C)c3)n2n1 [Compound B56, (4-(5-((4-amino-2-butoxyimidazo[2,1-f][1,2,4]triazin-7-yl)methyl)-3-methylpyridin-2-yl)piperazin-1-yl)(piperidin-4-yl)methanone]",422
10,"CCCCOc1nc(N)c2ncc(Cc3cnc(N4CCN(CCc5ccccc5)CC4)c(C)c3)n2n1 [Compound B116, 2-butoxy-7-((5-methyl-6-(4-phenethylpiperazin-1-yl)pyridin-3-yl)methyl)imidazo[2,1-f][1,2,4]triazin-4-amine]",1190
11,"CCCCOc1nc(N)c2ncc(Cc3cnc(N4CC(N)C4)c(C)c3)n2n1 [Compound B136, 7-((6-(3-aminoazetidin-1-yl)-5-methylpyridin-3-yl)methyl)-2-butoxyimidazo[2,1-f][1,2,4]triazin-4-amine]",4980
12,"CCCC(CCC)Nc1nc(N)c2ncc(Cc3cnc(N4CCN(C(=O)CNC)CC4)c(C)c3)n2n1 [Compound B196, 1-(4-(5-((4-amino-2-(heptan-4-ylamino)imidazo[2,1-f] [1,2,4]triazin-7-yl)methyl)-3-methylpyridin-2-yl)piperazin-1-yl)-2-(methylamino)ethan-1-one]",5.7
13,"CCCC(C)Oc1nc(N)c2ncc(Cc3cnc(N4CCC(N(C)C)CC4)c(C)c3)n2n1 (stereo not shown) [Compound B133, 7-((6-(4-(dimethylamino)piperidin-1-yl)-5-methylpyridin-3-yl)methyl)-2-(pentan-2-yloxy)imidazo[2,1-f][1,2,4]triazin-4-amine]",5.6
14,"CCCCOc1nc(N)c2ncc(Cc3cnc(N4CCN(C(=O)CN(CC)CC)CC4)c(C)c3)n2n1 [Compound B170, 1-(4-(5-((4-amino-2-butoxyimidazo[2,1-f][1,2,4]triazin-7-yl)methyl)-3-methylpyridin-2-yl)piperazin-1-yl)-2-(diethylamino)ethan-1-one]",29
15,"CCCCNc1nc(N)c2ncc(Cc3cnc(N4CCC(N(C)C)CC4)c(C)c3)n2n1 [Compound B135, N2-butyl-7-((6-(4-(dimethylamino)piperidin-1-yl)-5-methylpyridin-3-yl)methyl)imidazo[2,1-f][1,2,4]triazine-2,4-diamine]",22
16,"CCCCOc1nc(N)c2ncc(Cc3cnc(N4CCN(CCN)CC4)c(C)c3)n2n1 [Compound B91, 7-((6-(4-(2-aminoethyl)piperazin-1-yl)-5-methylpyridin-3-yl)methyl)-2-butoxyimidazo[2,1-f][1,2,4]triazin-4-amine]",150
17,"1-((4-amino-7-((5-methyl-6-(piperazin-1-yl)pyridin-3-yl)methyl)imidazo[2,1-f][1,2,4]triazin-2-yl)oxy)hexan-3-ol [Compound B157]",667
18,"CCCCOc1nc(N)c2ncc(Cc3cnc(N4CCC(CNC)CC4)c(C)c3)n2n1 [Compound B106, 2-butoxy-7-((5-methyl-6-(4-((methylamino)methyl)piperidin-1-yl)pyridine-3-yl)methyl)imidazo[2,1-f][1,2,4]triazin-4-amine]",71
19,"Cc1cc(Cc2cnc3c(N)nc(OCC4CCCCC4)nn23)cnc1N1CCNCC1 [Compound B192, 2-(cyclohexylmethoxy)-7-((5-methyl-6-(piperazin-1-yl)pyridin-3-yl)methyl)imidazo[2,1-f][1,2,4]triazin-4-amine]",2680
20,"CCCCOc1nc(N)c2ncc(Cc3ccc(C4CCCNC4)cc3)n2n1 (stereo not shown) [Compound B20, 2-butoxy-7-(4-(piperidin-3-yl)benzyl)imidazo[2,1-f][1,2,4]triazin-4-amine]",7990
21,"CCCCOc1nc(N)c2ncc(Cc3cnc(N4CCNCC4)c(F)c3)n2n1 [Compound B9, 2-butoxy-7-((5-fluoro-6-(piperazin-1-yl)pyridin-3-yl)methyl)imidazo[2,1-f][1,2,4]triazin-4-amine]",345
22,"CC[C@H](C)Oc1nc(N)c2ncc(Cc3cnc(N4CCNCC4)c(C)c3)n2n1 [Compound B158, (S)-2-(sec-butoxy)-7-((5-methyl-6-(piperazin-1-yl)pyridin-3-yl)methyl)imidazo[2,1-f][1,2,4]triazin-4-amine]",6.5
23,"CCCC(C)Nc1nc(N)c2ncc(Cc3cnc(N4CCC(CNC)CC4)c(C)c3)n2n1 (stereo not shown) [Compound B204, 7-((5-methyl-6-(4-((methylamino)methyl)piperidin-1-yl)pyridin-3-yl)methyl)-N2-(pentan-2-yl)imidazo[2,1-f][1,2,4]triazine-2,4-diamine]",7.3
24,"Cc1cc(Cc2cnc3c(N)nc(OCCOc4ccccc4)nn23)cnc1N1CCNCC1 [Compound B25, 7-((5-methyl-6-(piperazin-1-yl)pyridin-3-yl)methyl)-2-(2-phenoxyethoxy)imidazo[2,1-f][1,2,4]triazin-4-amine]",> 10000
25,"CCC[C@@H](C)Oc1nc(N)c2ncc(Cc3cnc(N4CCN(C(=O)CNC)CC4)c(C)c3)n2n1 [Compound B160, (R)-1-(4-(5-((4-amino-2-(pentan-2-yloxy)imidazo[2,1-f][1,2,4]triazin-7-yl)methyl)-3-methylpyridin-2-yl)piperazin-1-yl)-2-(methylamino)ethan-1-one]",25
26,"CCCC(CCC)Oc1nc(N)c2ncc(Cc3cnc(N4CCC(CN(C)C)CC4)c(C)c3)n2n1 [Compound B198, 7-((6-(4-((dimethylamino)methyl)piperidin-1-yl)-5-methylpyridin-3-yl)methyl)-2-(heptan-4-yloxy)imidazo[2,1-f][1,2,4]triazin-4-amine]",4.1
27,"COCC(C)Oc1nc(N)c2ncc(Cc3cnc(N4CCNCC4)c(C)c3)n2n1 (stereo not shown) [Compound B174, 2-((1-methoxypropan-2-yl)oxy)-7-((5-methyl-6-(piperazin-1-yl)pyridin-3-yl)methyl)imidazo[2,1-f][1,2,4]triazin-4-amine]",48
28,"CCCCOc1nc(N)c2ncc(Cc3ccc(N4CCNCC4)c(C)c3)n2n1 [Compound B36, 2-butoxy-7-(3-methyl-4-(piperazin-1-yl)benzyl)imidazo[2,1-f][1,2,4]triazin-4-amine]",182
